According to article PMC8550792, “Evolution of kinase polypharmacology across HSP90 drug discovery” (Cell Chemical Biology, 2021):

Legend:
Assay in all cases: biochemical
Assay type in all cases: biochemical
[1] = target: T1, 382 unique human kinases (Homo sapiens, UniProt P21802, R612T); details: FGFR2 (R612T), 10 uM; for remaining activity at 10 µM: read-out: % Enzyme Activity (relative to DMSO controls)
T1 construct: purchased Reaction Biology (HotSpot contract assay)

[2] = target: T2, 382 unique human kinases (Homo sapiens, UniProt P29376); details: TYK1/LTK, 10 uM; for remaining activity at 10 µM: read-out: % Enzyme Activity (relative to DMSO controls)
T2 construct: purchased Reaction Biology (HotSpot contract assay)
T2 sequence (P29376 17-864): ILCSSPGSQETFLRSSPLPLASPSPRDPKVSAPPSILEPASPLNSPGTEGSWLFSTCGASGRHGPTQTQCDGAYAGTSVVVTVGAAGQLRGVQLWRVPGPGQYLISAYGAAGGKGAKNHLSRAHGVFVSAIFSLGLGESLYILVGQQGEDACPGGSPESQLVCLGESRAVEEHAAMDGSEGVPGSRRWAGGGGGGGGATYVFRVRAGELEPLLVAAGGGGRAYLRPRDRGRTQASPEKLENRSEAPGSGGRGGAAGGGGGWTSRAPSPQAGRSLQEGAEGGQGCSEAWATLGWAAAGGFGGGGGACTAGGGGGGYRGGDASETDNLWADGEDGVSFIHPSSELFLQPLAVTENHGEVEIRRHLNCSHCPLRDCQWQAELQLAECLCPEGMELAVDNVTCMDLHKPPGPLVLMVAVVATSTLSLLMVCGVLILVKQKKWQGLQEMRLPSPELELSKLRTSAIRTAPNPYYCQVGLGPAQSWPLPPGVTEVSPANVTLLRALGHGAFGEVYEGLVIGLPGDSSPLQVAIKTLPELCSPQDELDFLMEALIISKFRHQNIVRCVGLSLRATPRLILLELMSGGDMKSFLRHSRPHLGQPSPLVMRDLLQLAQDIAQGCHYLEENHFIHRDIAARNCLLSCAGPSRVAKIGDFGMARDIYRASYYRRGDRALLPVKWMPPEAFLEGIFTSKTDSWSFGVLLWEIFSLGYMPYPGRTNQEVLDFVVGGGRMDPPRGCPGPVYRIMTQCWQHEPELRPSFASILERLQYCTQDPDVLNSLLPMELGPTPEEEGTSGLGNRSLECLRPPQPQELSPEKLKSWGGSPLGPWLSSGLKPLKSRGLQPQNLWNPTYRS

[3] = target: T3, 382 unique human kinases (Homo sapiens, UniProt P30530, R499C); details: AXL (R499C), 10 uM; for remaining activity at 10 µM: read-out: % Enzyme Activity (relative to DMSO controls)
T3 construct: purchased Reaction Biology (HotSpot contract assay)
T3 sequence (P30530 26-894 R499C): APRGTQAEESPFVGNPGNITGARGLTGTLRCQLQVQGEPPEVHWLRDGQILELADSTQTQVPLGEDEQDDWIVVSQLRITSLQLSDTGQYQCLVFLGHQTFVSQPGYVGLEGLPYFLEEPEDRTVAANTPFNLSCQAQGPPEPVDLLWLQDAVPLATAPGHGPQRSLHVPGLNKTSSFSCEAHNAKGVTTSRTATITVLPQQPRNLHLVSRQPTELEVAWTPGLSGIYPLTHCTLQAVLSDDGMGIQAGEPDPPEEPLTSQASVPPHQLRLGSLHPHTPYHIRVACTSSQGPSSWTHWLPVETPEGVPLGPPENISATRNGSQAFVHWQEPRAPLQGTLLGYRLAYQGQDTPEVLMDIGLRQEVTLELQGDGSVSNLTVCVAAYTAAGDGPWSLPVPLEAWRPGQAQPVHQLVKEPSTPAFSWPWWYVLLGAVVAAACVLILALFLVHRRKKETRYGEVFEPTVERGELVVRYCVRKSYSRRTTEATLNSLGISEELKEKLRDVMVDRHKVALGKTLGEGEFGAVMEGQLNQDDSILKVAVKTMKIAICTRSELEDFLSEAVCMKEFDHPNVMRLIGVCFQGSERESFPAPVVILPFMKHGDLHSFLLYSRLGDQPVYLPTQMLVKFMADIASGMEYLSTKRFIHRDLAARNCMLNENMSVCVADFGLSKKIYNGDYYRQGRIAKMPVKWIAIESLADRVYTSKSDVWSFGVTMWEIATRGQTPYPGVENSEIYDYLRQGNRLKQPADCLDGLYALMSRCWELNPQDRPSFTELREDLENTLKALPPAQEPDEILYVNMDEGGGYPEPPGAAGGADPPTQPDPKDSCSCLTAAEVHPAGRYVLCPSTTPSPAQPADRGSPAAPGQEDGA

[4] = target: T4, 382 unique human kinases (Homo sapiens, UniProt P51812); details: RSK2, 10 uM; for remaining activity at 10 µM: read-out: % Enzyme Activity (relative to DMSO controls)
T4 construct: purchased Reaction Biology (HotSpot contract assay)
T4 sequence (P51812 whole entry): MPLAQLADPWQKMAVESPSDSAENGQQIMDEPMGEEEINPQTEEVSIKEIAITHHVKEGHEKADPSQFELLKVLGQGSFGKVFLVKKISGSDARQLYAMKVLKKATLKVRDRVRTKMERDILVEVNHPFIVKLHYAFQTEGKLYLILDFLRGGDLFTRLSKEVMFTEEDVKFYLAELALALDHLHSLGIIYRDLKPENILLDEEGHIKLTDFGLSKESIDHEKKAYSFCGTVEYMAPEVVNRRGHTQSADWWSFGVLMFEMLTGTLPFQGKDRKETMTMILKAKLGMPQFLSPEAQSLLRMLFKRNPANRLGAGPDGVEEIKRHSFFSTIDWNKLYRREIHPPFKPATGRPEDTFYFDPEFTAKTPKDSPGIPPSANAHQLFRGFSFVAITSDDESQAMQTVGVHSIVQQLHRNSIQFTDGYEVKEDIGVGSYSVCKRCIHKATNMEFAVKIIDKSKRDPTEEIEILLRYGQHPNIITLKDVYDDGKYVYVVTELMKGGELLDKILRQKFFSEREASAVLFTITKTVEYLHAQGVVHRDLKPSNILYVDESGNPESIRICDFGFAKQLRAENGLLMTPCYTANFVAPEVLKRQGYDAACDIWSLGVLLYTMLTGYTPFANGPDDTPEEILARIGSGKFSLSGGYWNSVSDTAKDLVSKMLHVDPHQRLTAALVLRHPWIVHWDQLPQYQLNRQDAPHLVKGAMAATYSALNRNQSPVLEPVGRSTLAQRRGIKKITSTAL

[5] = target: T5, 382 unique human kinases (Homo sapiens, UniProt Q13873); details: BMPR2, 10 uM; for remaining activity at 10 µM: read-out: % Enzyme Activity (relative to DMSO controls)
T5 construct: purchased Reaction Biology (HotSpot contract assay)
T5 sequence (Q13873 27-1038): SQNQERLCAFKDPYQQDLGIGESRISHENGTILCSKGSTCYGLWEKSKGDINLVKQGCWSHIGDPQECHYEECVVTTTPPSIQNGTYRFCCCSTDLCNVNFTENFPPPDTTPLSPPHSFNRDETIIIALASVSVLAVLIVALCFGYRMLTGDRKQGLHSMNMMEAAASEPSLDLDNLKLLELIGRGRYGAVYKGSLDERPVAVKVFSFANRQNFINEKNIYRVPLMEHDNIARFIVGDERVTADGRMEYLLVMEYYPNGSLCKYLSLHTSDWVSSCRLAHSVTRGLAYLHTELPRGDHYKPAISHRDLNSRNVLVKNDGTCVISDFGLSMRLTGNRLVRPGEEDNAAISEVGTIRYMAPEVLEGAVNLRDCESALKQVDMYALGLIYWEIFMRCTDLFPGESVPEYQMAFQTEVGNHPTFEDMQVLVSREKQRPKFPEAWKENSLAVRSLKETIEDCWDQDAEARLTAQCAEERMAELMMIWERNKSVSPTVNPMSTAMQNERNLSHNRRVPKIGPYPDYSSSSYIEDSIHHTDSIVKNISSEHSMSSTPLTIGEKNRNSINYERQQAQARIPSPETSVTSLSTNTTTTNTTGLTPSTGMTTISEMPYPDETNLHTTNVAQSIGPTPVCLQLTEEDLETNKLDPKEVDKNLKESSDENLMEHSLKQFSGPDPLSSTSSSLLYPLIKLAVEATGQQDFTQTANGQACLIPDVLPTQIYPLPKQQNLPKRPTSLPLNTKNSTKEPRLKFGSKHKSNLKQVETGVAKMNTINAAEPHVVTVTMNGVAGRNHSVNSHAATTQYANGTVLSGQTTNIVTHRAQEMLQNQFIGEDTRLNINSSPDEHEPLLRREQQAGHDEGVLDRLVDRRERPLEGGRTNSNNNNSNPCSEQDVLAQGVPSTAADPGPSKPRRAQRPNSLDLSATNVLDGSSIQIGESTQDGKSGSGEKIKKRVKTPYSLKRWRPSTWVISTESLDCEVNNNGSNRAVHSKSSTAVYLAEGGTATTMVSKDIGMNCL

[6] = target: T6, 382 unique human kinases (Homo sapiens, UniProt P10721, V559A); details: c-Kit (V559A), [ATP] 100 µM, compound 10 uM; for remaining activity at 10 µM: read-out: % Enzyme Activity (relative to DMSO controls)
T6 construct: purchased Reaction Biology (HotSpot contract assay)
T6 sequence (P10721 26-976 V559A): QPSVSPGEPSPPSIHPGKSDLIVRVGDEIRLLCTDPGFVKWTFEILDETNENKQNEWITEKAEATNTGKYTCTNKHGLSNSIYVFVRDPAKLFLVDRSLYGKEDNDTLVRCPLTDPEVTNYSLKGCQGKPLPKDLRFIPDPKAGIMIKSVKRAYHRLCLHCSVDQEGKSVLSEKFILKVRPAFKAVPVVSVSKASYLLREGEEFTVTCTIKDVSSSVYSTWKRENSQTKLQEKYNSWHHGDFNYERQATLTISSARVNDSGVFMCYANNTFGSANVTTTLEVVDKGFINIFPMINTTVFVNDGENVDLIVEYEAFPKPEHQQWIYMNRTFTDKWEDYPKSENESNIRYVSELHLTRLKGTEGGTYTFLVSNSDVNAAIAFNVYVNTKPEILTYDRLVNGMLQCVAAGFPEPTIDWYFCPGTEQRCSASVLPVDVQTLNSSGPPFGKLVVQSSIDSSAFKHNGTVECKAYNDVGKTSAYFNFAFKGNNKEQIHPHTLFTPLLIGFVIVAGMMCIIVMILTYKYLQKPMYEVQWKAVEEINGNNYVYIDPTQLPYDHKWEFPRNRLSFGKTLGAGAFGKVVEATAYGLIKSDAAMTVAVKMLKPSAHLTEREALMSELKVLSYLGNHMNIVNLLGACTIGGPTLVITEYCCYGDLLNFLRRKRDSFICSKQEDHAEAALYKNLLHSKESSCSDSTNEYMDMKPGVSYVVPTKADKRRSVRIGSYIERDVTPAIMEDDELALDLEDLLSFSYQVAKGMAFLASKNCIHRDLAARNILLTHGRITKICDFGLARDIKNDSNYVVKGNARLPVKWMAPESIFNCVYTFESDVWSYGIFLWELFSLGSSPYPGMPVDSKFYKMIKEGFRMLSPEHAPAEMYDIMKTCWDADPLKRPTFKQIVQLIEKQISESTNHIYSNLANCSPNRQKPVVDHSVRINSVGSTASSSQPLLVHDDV

[7] = target: T7, 382 unique human kinases (Homo sapiens, UniProt Q5TCX8); details: MLK4, 10 uM; for remaining activity at 10 µM: read-out: % Enzyme Activity (relative to DMSO controls)
T7 construct: purchased Reaction Biology (HotSpot contract assay)
T7 sequence (Q5TCX8 whole entry): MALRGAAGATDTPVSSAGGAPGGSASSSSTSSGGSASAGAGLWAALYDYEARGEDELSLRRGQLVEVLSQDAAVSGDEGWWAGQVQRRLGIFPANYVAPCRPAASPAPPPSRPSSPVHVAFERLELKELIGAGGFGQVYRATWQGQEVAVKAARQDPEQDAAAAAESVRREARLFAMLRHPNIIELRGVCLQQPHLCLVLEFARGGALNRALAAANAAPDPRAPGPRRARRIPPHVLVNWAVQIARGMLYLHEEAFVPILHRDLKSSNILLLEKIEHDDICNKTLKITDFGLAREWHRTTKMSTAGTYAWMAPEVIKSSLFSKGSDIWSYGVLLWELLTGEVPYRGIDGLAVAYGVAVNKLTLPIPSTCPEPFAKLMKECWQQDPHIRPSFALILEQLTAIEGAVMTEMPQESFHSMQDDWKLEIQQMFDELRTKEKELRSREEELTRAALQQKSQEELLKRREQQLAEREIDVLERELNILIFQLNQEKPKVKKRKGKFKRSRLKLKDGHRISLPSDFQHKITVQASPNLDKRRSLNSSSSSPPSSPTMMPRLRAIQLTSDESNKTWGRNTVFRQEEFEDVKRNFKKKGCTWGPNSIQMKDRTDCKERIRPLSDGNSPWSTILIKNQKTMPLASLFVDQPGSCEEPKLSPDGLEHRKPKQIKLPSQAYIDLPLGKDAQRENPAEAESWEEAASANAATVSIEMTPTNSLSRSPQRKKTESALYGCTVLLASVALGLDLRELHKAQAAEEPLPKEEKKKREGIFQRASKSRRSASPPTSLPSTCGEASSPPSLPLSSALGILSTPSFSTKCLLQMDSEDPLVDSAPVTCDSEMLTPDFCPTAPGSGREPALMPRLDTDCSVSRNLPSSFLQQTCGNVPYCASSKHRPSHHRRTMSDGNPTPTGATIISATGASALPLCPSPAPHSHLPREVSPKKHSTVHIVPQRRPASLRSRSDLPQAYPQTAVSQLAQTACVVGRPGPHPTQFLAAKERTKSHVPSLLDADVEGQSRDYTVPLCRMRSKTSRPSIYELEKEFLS

T1 sequence (P21802 22-821 R612T): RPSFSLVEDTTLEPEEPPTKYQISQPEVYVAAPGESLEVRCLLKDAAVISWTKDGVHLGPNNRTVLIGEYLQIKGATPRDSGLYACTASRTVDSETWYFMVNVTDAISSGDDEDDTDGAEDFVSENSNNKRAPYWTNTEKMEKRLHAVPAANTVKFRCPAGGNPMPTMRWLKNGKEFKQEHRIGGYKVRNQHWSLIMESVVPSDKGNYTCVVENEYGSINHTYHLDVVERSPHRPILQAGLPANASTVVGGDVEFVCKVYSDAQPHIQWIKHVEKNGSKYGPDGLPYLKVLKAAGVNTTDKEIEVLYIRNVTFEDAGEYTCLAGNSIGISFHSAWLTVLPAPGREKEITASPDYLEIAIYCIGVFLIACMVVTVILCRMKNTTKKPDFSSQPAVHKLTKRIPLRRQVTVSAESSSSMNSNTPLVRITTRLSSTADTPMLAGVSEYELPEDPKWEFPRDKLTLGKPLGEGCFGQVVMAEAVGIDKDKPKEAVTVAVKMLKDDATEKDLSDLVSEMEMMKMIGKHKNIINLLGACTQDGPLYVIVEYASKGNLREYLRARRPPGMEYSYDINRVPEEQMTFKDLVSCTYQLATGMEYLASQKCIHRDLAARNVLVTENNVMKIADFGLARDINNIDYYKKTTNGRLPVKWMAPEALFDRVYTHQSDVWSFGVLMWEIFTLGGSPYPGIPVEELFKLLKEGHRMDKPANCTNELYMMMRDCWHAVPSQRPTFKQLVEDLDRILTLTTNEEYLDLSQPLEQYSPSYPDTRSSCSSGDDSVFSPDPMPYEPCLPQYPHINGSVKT

Row | SMILES | remaining activity at 10 µM [1] [%] | remaining activity at 10 µM [2] [%] | remaining activity at 10 µM [3] [%] | remaining activity at 10 µM [4] [%] | remaining activity at 10 µM [5] [%] | remaining activity at 10 µM [6] [%] | remaining activity at 10 µM [7] [%] | % Enzyme Activity (relative to DMSO controls) [1] [%] | % Enzyme Activity (relative to DMSO controls) [2] [%] | % Enzyme Activity (relative to DMSO controls) [3] [%] | % Enzyme Activity (relative to DMSO controls) [4] [%] | % Enzyme Activity (relative to DMSO controls) [5] [%] | % Enzyme Activity (relative to DMSO controls) [6] [%] | % Enzyme Activity (relative to DMSO controls) [7] [%]
1 | CC(C)c1cc(-c2n[nH]c(=O)n2-c2ccc3c(ccn3C)c2)c(O)cc1O [Ganetespib (STA9090)] | 68.6 | 73.6 | 66.4 | 78.8 | 65.3 | – | – | – | – | – | – | – | – | –
2 | CC(C)c1cc(-c2n[nH]c(=O)n2-c2ccc3c(ccn3C)c2)c(O)cc1O [Ganetespib] | – | – | – | – | – | 43.9 | 141 | – | – | – | – | – | – | –
3 | CCNC(=O)c1noc(-c2cc(C(C)C)c(O)cc2O)c1-c1ccc(CN2CCOCC2)cc1 [Luminespib (AUY-922)] | 114 | 98.2 | 98.8 | 93.5 | 108 | – | – | 112.07 | 97.76 | 96.57 | 92.24 | 104.76 | – | –
4 | CCNC(=O)c1noc(-c2cc(C(C)C)c(O)cc2O)c1-c1ccc(CN2CCOCC2)cc1 [Luminespib] | – | – | – | – | – | 61.6 | 101 | – | – | – | – | – | 61.54 | 99.12
